The source of these data is US4789478A, “Conversion of inorganic ions to metal sulfides by microorganisms” (priority 1987, dated 1988).

This assay has as its system Desulfomonas and Citrobacter freundii. Nature of the assay: Effect of sulfate addition on sulfate-reducing activity of soil samples (Table 4). As to the method:
Soil samples are treated with a culture of Desulfomonas (10^8 cells/mL) and Citrobacter freundii (10^4 cells/mL) at 30° C., with and without added sulfate. Sulfate, if added, is a 1:1 mixture by weight of ferric ammonium sulfate and magnesium sulfate. Sulfate-reducing activity is indicated by formation of black precipitate in the soil sample within 24 h after mixing the cultures with soil samples.

As to Sulfate, under “100 ppm of sulfate”, the “sulfate-reducing activity of the mixed culture (in words)” value was “greatly improves sulfate-reducing activity of the mixed culture”. For the same substance, where the note is “200 ppm of sulfate”, the “sulfate reduction (in words)” value is “permit reduction in all cases”.
